Measured values published in patent US11590117B2, “Treatment of a hematologic malignancy with 2-(4-chlorophenyl)-n-((2-(2,6-dioxopiperidin-3-yl)-1-oxoisoindolin-5-yl)methyl)-2,2-difluoroacetamide” (priority 2016, dated 2023).
Values joined by “and” are separate entries in the source; they are usually repeats but may differ in a detail not shown here. Equal entries are not always repeated. Where two headings read alike, the source gives them in different places.

Experiments:
CFU-E = assay: Colony forming assay, bone marrow CD34+ cells in MethoCult; format: cell-based, human
Description: (§1) Experimental design: human bone marrow (BM) CD34+ cells were used to evaluate the potential for BM toxicity induced by Compound 1. In order to test the effects of Compound 1 on the functionality of hematopoietic progenitors, colony forming assays were done by seeding BM CD34+ cells on MethoCult medium. Cells were seeded directly in MethoCult with Compound 1 or cultured in liquid medium with Compound 1 for 2, 4, or 8 hours and then seeded in compound-free MethoCult to evaluate the effect of different exposure times. Early apoptosis induced by Compound 1 on HSC was analyzed by flow cytometry.
(§2) Results. Colony forming units (CFU) of common granulocyte/erythrocyte/monocyte/megakaryocyte (CFU-GEMM), CFU of granulocyte/monocyte (CFU-GM), burst forming unit of erythrocytes (BFU-E), and CFU of erythrocytes (CFU-E) in cultures exposed to Compound 1 or DMSO were scored on STEMvision.
(§3) Bone marrow CD34+ cells from normal donors were incubated with Compound 1 in MethoCult medium. Colony numbers for CFU-GM and BFU-E progenitors were counted using STEMVision automatic colony counting instrument and software and normalized to the colony number of the DMSO control. Results plotted as percentage of DMSO control vs concentration of Compound 1 were used to determine IC50 values. Data are shown as mean standard error of the mean of n=3 technical replicates. Donors were HD10, HD14, HD18, and HD19.

CFU-GEMM = assay: as above; format: cell-based, human
Description: as §1, §2, §3

HL-60 human AML cells = format: in vivo, SCID mice; conditions: for reduction in percentage of human CD33+/CD45+ tumor cells in the BM: vs vehicle control
Description: In this study, Compound 1 antitumor activity in the HL-60 IV AML xenograft model was studies. In this model, HL-60 human AML cells engraft in host BM and internal organs (eg, spleen, liver) and animals develop progressive peripheral leukocytosis. Female severe combined immunodeficiency (SCID) mice were inoculated with HL-60 cells by tail vein injection. To understand the effect of Compound 1 on the xenografted HL-60 cells, animals were dosed intraperitoneal (IP) with vehicle or Compound 1 (0.5, 1, 2.5, and 5 mg/kg) once daily (QD)×5 between Weeks 3 and 4 post-engraftment (AP6516, survival study) or animals were dosed IP twice daily (BID) with vehicle or Compound 1 for 5 or 10 consecutive days (5 mg/kg BID×5 or 2.5 mg/kg, BID×10) between Weeks 6 and 8 post-engraftment (Study AP6982, % human CD33+[hCD33+] cells in BM).
In this study, different Compound 1 dosing schedules (5 mg/kg, BID×5 consecutive days versus 2.5 mg/kg, BID×10 consecutive days) were studied while maintaining the total amount of drug administered constant. Vehicle control animals were treated with 5% N-methyl-2-pyrrolidone (NMP)/45% PEG 400/50% saline. Treatment was initiated 6 weeks post inoculation. Vehicle and Compound 1 treatment groups were terminated either on Day 7 (following 5 consecutive days of 5 mg/kg twice a day [BID] Compound 1) or on Day 11 (following 10 consecutive days of 2.5 mg/kg BID Compound 1) post treatment initiation. The primary endpoint for the study was percentage of hCD33+/CD45+ cells in the BM by FACS analysis. Additional endpoints included cell viability, body weight, and BM histology.
HL-60 cells were identified from femur bone marrow samples by FACS analysis as CD33+/CD45+ with human specific antibodies. The percentage of human CD33+/CD45+ cells in the BM of vehicle-treated animals from the BID×5 and BID×10 groups were 47.5±6% and 55.2±6%, respectively.

[1] = Donor HD10, 7.4 nM Compound 1, replicate counts
[2] = Donor HD10, 22.2 nM Compound 1, replicate counts
[3] = Donor HD10, 67 nM Compound 1, replicate counts
[4] = Donor HD10, 200 nM Compound 1, replicate counts
[5] = Donor HD10, 600 nM Compound 1, replicate counts
[6] = Donor HD14, 7.4 nM Compound 1, replicate counts
[7] = Donor HD14, 22.2 nM Compound 1, replicate counts
[8] = Donor HD14, 67 nM Compound 1, replicate counts
[9] = Donor HD14, 200 nM Compound 1, replicate counts
[10] = Donor HD14, 600 nM Compound 1, replicate counts
[11] = Donor HD18, 7.4 nM Compound 1, replicate counts
[12] = Donor HD18, 22.2 nM Compound 1, replicate counts
[13] = Donor HD18, 67 nM Compound 1, replicate counts
[14] = Donor HD18, 200 nM Compound 1, replicate counts
[15] = Donor HD18, 600 nM Compound 1, replicate counts
[16] = Donor HD19, 7.4 nM Compound 1, replicate counts
[17] = Donor HD19, 22.2 nM Compound 1, replicate counts
[18] = Donor HD19, 67 nM Compound 1, replicate counts
[19] = Donor HD19, 200 nM Compound 1, replicate counts
[20] = Donor HD19, 600 nM Compound 1, replicate counts

With `O=C1CCC(N2Cc3cc(CNC(=O)C(F)(F)c4ccc(Cl)cc4)ccc3C2=O)C(=O)N1` (centres unmarked) [Compound 1, 2-(4-chlorophenyl)-N-((2-(2,6-dioxopiperidin-3-yl)-1-oxoisoindolin-5-yl)methyl)-2,2-difluoroacetamide] the “Colony Number CFU-E” value (CFU-E; [1]) was 2, the “Colony Number CFU-E” value (CFU-E; [2]) was 0 and the “Colony Number CFU-E” value (CFU-E; [3]) was 0. The “Colony Number CFU-E” value (CFU-E; [4]) was 1 and 3, the “Colony Number CFU-E” value (CFU-E; [5]) was 0 and the “Colony Number CFU-E” value (CFU-E; [6]) was 6 and 0. For the same compound, the “Colony Number CFU-E” value (CFU-E; [7]) was 7 and 0, the “Colony Number CFU-E” value (CFU-E; [8]) was 4 and the “Colony Number CFU-E” value (CFU-E; [9]) was 1 and 2. For the same compound, the “Colony Number CFU-E” value (CFU-E; [10]) was 2 and 0, the “Colony Number CFU-E” value (CFU-E; [11]) was 0 and 2 and the “Colony Number CFU-E” value (CFU-E; [12]) was 7 and 1. The “Colony Number CFU-E” value (CFU-E; [13]) was 3 and 0, the “Colony Number CFU-E” value (CFU-E; [14]) was 3 and 2 and the “Colony Number CFU-E” value (CFU-E; [15]) was 1. The “Colony Number CFU-E” value (CFU-E; [16]) was 9 and 4, the “Colony Number CFU-E” value (CFU-E; [17]) was 4 and 5 and the “Colony Number CFU-E” value (CFU-E; [18]) was 6 and 3. For the same compound, the “Colony Number CFU-E” value (CFU-E; [19]) was 3 and 1, the “Colony Number CFU-E” value (CFU-E; [20]) was 1 and the “Colony Number CFU-GEMM” value (CFU-GEMM; [1]) was 4 and 2. The “Colony Number CFU-GEMM” value (CFU-GEMM; [2]) was 2 and 0, the “Colony Number CFU-GEMM” value (CFU-GEMM; [3]) was 5 and 1 and the “Colony Number CFU-GEMM” value (CFU-GEMM; [4]) was 0. For the same compound, the “Colony Number CFU-GEMM” value (CFU-GEMM; [5]) was 0, the “Colony Number CFU-GEMM” value (CFU-GEMM; [6]) was 0 and the “Colony Number CFU-GEMM” value (CFU-GEMM; [7]) was 0. The “Colony Number CFU-GEMM” value (CFU-GEMM; [8]) was 0, the “Colony Number CFU-GEMM” value (CFU-GEMM; [9]) was 0 and the “Colony Number CFU-GEMM” value (CFU-GEMM; [10]) was 0. For the same compound, the “Colony Number CFU-GEMM” value (CFU-GEMM; [11]) was 2 and 4, the “Colony Number CFU-GEMM” value (CFU-GEMM; [12]) was 1 and the “Colony Number CFU-GEMM” value (CFU-GEMM; [13]) was 0. For the same compound, the “Colony Number CFU-GEMM” value (CFU-GEMM; [14]) was 0, the “Colony Number CFU-GEMM” value (CFU-GEMM; [15]) was 0 and the “Colony Number CFU-GEMM” value (CFU-GEMM; [16]) was 4. The “Colony Number CFU-GEMM” value (CFU-GEMM; [17]) was 0 and 1, the “Colony Number CFU-GEMM” value (CFU-GEMM; [18]) was 0 and 1 and the “Colony Number CFU-GEMM” value (CFU-GEMM; [19]) was 0. The “Colony Number CFU-GEMM” value (CFU-GEMM; [20]) was 0, the “human CD33+/CD45+ cells in the BM” value (HL-60 human AML cells; 2.5 mg/kg IP BID×10) was 15.7% and the “reduction in percentage of human CD33+/CD45+ tumor cells in the BM” value (HL-60 human AML cells; 2.5 mg/kg IP BID×10, p<0.0001) was 71.5%. For the same compound, the “human CD33+/CD45+ cells in the BM” value (HL-60 human AML cells; 5 mg/kg IP BID×5) was 21.9% and the “reduction in percentage of human CD33+/CD45+ tumor cells in the BM” value (HL-60 human AML cells; 5 mg/kg IP BID×5, p=0.0013) was 54.0%.
